Read-outs that look alike come from different tables or passages of the source.
Tests used:
hERG = hERG (Homo sapiens, UniProt Q12809); experiment: hERG tail current, patch clamp in HEK 293 cells; conditions: for Residual Current (% of control): 37°C
Protocol: Formulation and stored at 2-4°C when not in use. When in use Tyrode solution was stored at
CaCl2, 1 MgCl2, 5.5 glucose and 5 HEPES. During the patch-clamp experiments the Tyrode
4.2.4. Storage and Formulation of Internal Solution
The internal solution was stored frozen at – 20°C until the day of use. The composition of
the internal solution was (in mM): 110 K+- aspartate, 23 KCl, 3 MgCl2, 1 EGTA, 5 HEPES,
0.4 GTP (Na+ salt), 5 ATP (Na+ salt), 5 creatine phosphate, 0.4 CaCl2 (pH 7.3 with KOH).
4.3.1. Source and Maintenance of hERG Transfected Cells
HEK 293 cells stably transfected with hERG cDNA, supplied by bSys GmbH Switzerland,
continuously maintained and passaged in sterile culture flasks containing a mixture of
Dulbecco’s modified Eagle’s medium and nutrient mixture F-12 supplemented with 10%
foetal bovine serum, 0.9% Penicillin/Streptomycin solution, Hygromycin B and Blasticidin.
HEK 293 cells were passaged at a confluence of about 80%. For electrophysiology studies,
the cells were seeded in Petri dishes (35x10 mm), with culture medium containing
tetracycline to activate channel expression, at a density that enables isolated cells to be
selected for patch-clamping. The dishes were stored in a humidified, gassed (5% CO2)
Petri dishes containing the cells to be used for electrophysiological studies were mounted on
the stage of an inverted microscope and were superfused with Tyrode solution. Membrane
currents were recorded (Axopatch 200B, Axon Instruments) in the whole cell configuration
by using suction pipettes (Harvard apparatus, 1.5 mm o.d. x 0.86 mm i.d.) with tip resistance
in the range of 2.5-3.5 MΩ. Gigaohm seals were formed between the patch electrodes and
individual cells. If the quality of the seal was judged to be poor, the electrode was replaced
and the process repeated with a different cell. Once a stable patch was achieved, recording
was commenced in voltage-clamp mode, with the cell initially clamped at –80 mV. Series
resistance and capacitance were compensated to about 70% of their initial value. Cells were
perfused through a microperfusion system allowing for solution changes to occur within
approximately one second. Computer software (pClamp version 8.0; Axon Instruments) was
used to generate voltage clamp protocols, acquire data and analyze current traces. The data
were stored on a computer hard disk for later analysis. Experiments were performed at a
temperature in the recording chamber of 37 ± 1°C, which was maintained with a temperature
Cells stably expressing hERG were held at –80 mV. Onset and steady state block of the
hERG channel current (IKr) due to the test items were monitored using a pulse pattern with
fixed amplitudes (first depolarization: -50 mV for 500 ms; second depolarization: +20 mV
for 2 seconds; hyperpolarization: -50 mV for 7 seconds). This pulse pattern was repeated
every 15 seconds, and current amplitude at the onset of the second step to –50 mV (“peak
tail current”) was monitored until a steady state was obtained. Recordings were acquired at
the sampling interval of 2 kHz and low-pass filtered at 1 kHz. The steady state peak tail
current was monitored and recorded in vehicle solution and then the test item was applied to
the bath solution. At the end the reference item E4031 was applied to block 100% of the
current for determination of the current “leak” response to the stimulation protocol. The
current amplitude was continually monitored through the onset of the voltage step to –50
mV until a new steady state level of current was achieved. Each cell was exposed to a single
test substance concentration.
4.5. Statistical Analysis
For each cell the effect of the test items was ascertained by calculating the residual current as
percentage of control (% control). All data were corrected for “leak” current by subtracting
Each value represents the average current
recorded from 3 sequential voltage pulses. Data from individual cells was collected and the

[1] = One-electron reduction potential by pulse radiolysis; format: physicochemical
Protocol: One-electron reduction potentials were determined by pulse radiolysis following an established procedure.

[2] = Rat 28-day toxicokinetics; format: in vivo; conditions: plasma, po; for half-life: read-out: apparent terminal half-life (converted); for AUC: read-out: AUC within 24 hours post dosing
Protocol: In the rat repeated-dose toxicokinetic study, fexinidazole was administered orally by gavage once a day for 28 consecutive days to ten or fifteen Crl:CD (SD)IGS BR rats/sex/group at doses of 50, 200, or 800 mg/kg/day. A control group received the vehicle alone (5% Tween 80/0.5% methocel). Ten animals/sex/group were sacrificed at the end of the treatment period on day 29 or 30 of study. The remaining 5 animals/sex/group in the control and high-dose groups were sacrificed on day 43 at the end of a 2-weeks observation period. Systemic exposure to fexinidazole and its sulfoxide and sulfone metabolites was evaluated in three additional animals/sex/group. Samples were taken at predose, and 30 min, 1, 2, 4, 8 and 24 h after dosing on days 1, 14, and 28, and in addition at 48 and 72 h after treatment on day 28.
Toxicokinetic Report for the study No. 0504-2007
SD Standard deviation of the mean […]
t1/2,z Terminal half-life tmax Time to peak plasma concentration
ULOQ Upper limit of quantification
The study was conducted according to the study protocol and related amendment.
Fexinidazole was orally given by gavage once a day for 28 days to male and female Sprague Dawley rats according to the following scheme
Fexinidazole was suspended with 5% Tween 80 in 0.5% Methyl cellulose 400 cP.
6.2. Sample Collection and Handling
Blood samples (about 0.25 mL/sampling time) were withdrawn from retro-orbital sinus plexus under isofluorane anesthesia and put in heparinized plastic tubes kept on a ice-water bath, then centrifuged for 10 min at 1200g at +4°C and two aliquots of about 50 μL of plasma were stored in a freezer at -80°C until analysis. Blood was taken from three rats/gender/dose on Days 1 and 14 at pre-dose and 0.5, 1, 2, 4, 8 and 24 hours after dosing, on Day 28 at pre-dose and 1, 2, 4, 8, 24, 48 and 72 hours after dosing. After the administration of the vehicle, the samples were taken from three rats/gender at pre-dose and […]
6.3. Bioanalytical Method
Rat plasma concentrations of Fexinidazole and its sulfoxide (M1) and sulfone (M2) metabolites were determined by a validated LC/MS/MS method. The calibration range for the assay was 5-1000 ng/mL for Fexinidazole and 25-25000 ng/mL for M1 and M2.
Study samples containing analytes concentrations above the upper limit of quantitation were diluted with blank matrix prior to analysis.
6.4. Pharmacokinetic Calculations
Pharmacokinetic evaluation was carried out using non-compartmental approach with the aid […]
Excel spreadsheet (Microsoft Inc., Seattle, USA). […]
In the calculations, the undetectable concentrations between detectable ones were ignored.
After each dose level, Cmax and tmax of Fexinidazole and sulfoxide and sulfone metabolites […]
linear trapezoidal rule up to the last detectable concentration. On Day 28, since the blood […]
24 hours post dosing was calculated and denoted AUC0-24. This AUC was calculated in order to compare AUC values on Day 28 to those on Day 1 and Day 14. On Day 28, in addition, the half-life of the terminal phase, t1/2,z, was determined by linear regression analysis of the natural-log concentration vs. time curve, where t1/2,z = ln(2)/slope of the regression line.
Fexinidazole and metabolites accumulation ratios, based on Cmax (RA,Cmax), AUC0-24 (RA,AUC0-24) and AUC0-t(last) (RA,AUC0-t(last)), were calculated as the ratio between the parameters obtained on Day 14 and Day 28 to the corresponding one at Day 1. […]
pharmacokinetic parameters of each compound sorted by dose, gender and day of dosing. […]
compound are reported in Tables 1 and 2, whilst individual and mean parameters of each […]
Individual and mean (±SD, CV%) plasma
2A1 - 19A1 of Appendix 1. Individual plasma concentrations of Fexinidazole and both metabolites are plot in Figures 1 - 9, whilst the mean concentrations are plot in Figures 10 - 15. Mean normalized Cmax and AUC0-t(last) values of Fexinidazole and metabolites vs. dose are plot in Figures 16 - 21.
In-study bioanalytical validation data are reported in Appendix 2. All analytical batches met […]

[3] = Sprague-Dawley (Crl:CD (SD)IGS BR), 50 mg/kg/day, 50 mg/kg/day po, day 1
[4] = Sprague-Dawley (Crl:CD (SD)IGS BR), 50 mg/kg/day, 50 mg/kg/day po, day 14
[5] = Sprague-Dawley (Crl:CD (SD)IGS BR), 200 mg/kg/day, 200 mg/kg/day po, day 1
[6] = both sexes, Sprague-Dawley (Crl:CD (SD)IGS BR), 200 mg/kg/day, 200 mg/kg/day po, day 14
[7] = both sexes, Sprague-Dawley (Crl:CD (SD)IGS BR), 800 mg/kg/day, 800 mg/kg/day po, day 1
[8] = both sexes, Sprague-Dawley (Crl:CD (SD)IGS BR), 800 mg/kg/day, 800 mg/kg/day po, day 14

Sequence of hERG (Q12809 whole entry): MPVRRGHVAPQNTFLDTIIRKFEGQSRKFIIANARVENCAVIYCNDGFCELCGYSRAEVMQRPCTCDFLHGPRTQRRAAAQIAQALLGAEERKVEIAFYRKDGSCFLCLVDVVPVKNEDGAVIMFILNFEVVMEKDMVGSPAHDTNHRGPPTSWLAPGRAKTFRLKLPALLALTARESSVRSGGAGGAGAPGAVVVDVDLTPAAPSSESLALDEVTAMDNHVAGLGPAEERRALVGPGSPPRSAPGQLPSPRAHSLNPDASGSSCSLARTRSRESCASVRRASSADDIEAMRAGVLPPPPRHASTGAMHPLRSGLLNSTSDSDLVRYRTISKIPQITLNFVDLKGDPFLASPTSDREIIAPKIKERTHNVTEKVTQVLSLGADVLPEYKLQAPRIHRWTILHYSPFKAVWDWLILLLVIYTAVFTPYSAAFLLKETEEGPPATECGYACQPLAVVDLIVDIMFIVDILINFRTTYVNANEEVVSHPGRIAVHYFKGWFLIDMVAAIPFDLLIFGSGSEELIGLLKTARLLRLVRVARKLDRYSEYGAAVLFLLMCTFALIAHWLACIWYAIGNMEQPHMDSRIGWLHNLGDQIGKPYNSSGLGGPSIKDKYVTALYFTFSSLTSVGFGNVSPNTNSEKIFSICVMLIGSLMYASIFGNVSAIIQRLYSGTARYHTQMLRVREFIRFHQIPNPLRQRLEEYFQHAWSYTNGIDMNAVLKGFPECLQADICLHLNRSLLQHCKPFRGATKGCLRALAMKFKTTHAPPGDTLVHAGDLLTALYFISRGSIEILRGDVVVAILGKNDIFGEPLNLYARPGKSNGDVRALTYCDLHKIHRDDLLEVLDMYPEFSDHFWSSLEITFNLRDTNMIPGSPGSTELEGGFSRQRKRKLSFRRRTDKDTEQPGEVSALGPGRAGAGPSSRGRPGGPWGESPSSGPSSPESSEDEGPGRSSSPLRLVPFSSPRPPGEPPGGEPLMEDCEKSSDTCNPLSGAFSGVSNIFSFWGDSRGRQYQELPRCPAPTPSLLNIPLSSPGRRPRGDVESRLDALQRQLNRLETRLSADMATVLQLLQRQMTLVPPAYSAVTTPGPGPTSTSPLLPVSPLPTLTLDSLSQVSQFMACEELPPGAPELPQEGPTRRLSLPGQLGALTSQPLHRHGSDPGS

## Cn1c([N+](=O)[O-])cnc1COc1ccc(S(C)(=O)=O)cc1 [Fexinidazole sulfone]
hERG; 1 µM
  Residual Current (% of control): 96.16±8.15%
hERG; 5 µM
  Residual Current (% of control): 90.76±3.84%
hERG; 30 µM, 9.34 µg/mL
  decrease on hERG peak tail current: 33%
hERG; 30 µM
  Residual Current (% of control): 67.41±2.24%
hERG; 1 or 5 µM
  effect on hERG peak tail current: no effect
[1]
  single electron redox potential: −488 mV
[2]; Sprague Dawley (Crl:CD (SD)IGS BR), 50 mg/kg/day, Day 28, female
  half-life: 13 h
[2]; Sprague Dawley (Crl:CD (SD)IGS BR), 50 mg/kg/day, Day 28, male
  half-life: 6.1 ± 1.2 h
[2]; Sprague Dawley (Crl:CD (SD)IGS BR), 200 mg/kg/day, Day 28, female
  half-life: 7.3 h
[2]; Sprague Dawley (Crl:CD (SD)IGS BR), 200 mg/kg/day, Day 28, male
  half-life: 7.5 h
[2]; Sprague Dawley (Crl:CD (SD)IGS BR), 800 mg/kg/day, Day 28, female (n=2)
  half-life: 11 h
[2]; Sprague Dawley (Crl:CD (SD)IGS BR), 800 mg/kg/day, Day 28, male
  half-life: 10 h
[2]; [3]
  Cmax: 2.92 ± 2.26 µg/mL
  Tmax: 7.33 ± 1.63 h
[2]; Sprague-Dawley (Crl:CD (SD)IGS BR), 50 mg/kg/day, 50 mg/kg/day po, day 1, read-out: AUC0-t(last)
  AUC(0-t): 36.1 ± 28.6 µg·h/mL
[2]; [4]
  Cmax: 6.38 ± 2.3 µg/mL
  Tmax: 6 ± 2.19 h
[2]; Sprague-Dawley (Crl:CD (SD)IGS BR), 50 mg/kg/day, 50 mg/kg/day po, day 14, read-out: AUC0-t(last)
  AUC(0-t): 89.6 ± 34.1 µg·h/mL
[2]; Sprague-Dawley (Crl:CD (SD)IGS BR), 50 mg/kg/day, Day 28, female
  AUC: 175 µg·h/mL
[2]; Sprague-Dawley (Crl:CD (SD)IGS BR), 50 mg/kg/day, Day 28, male
  AUC: 106 µg·h/mL
[2]; [5]
  Cmax: 9.29 ± 1.75 µg/mL
  Tmax: 8 h
[2]; Sprague-Dawley (Crl:CD (SD)IGS BR), 200 mg/kg/day, Day 28, female
  AUC: 341 µg·h/mL
[2]; Sprague-Dawley (Crl:CD (SD)IGS BR), 200 mg/kg/day, Day 28, male
  AUC: 341 µg·h/mL
[2]; Sprague-Dawley (Crl:CD (SD)IGS BR), 800 mg/kg/day, Day 28, female (n=2)
  AUC: 572 µg·h/mL
[2]; Sprague-Dawley (Crl:CD (SD)IGS BR), 800 mg/kg/day, Day 28, male
  AUC: 459 µg·h/mL
[2]; both sexes, Sprague-Dawley (Crl:CD (SD)IGS BR), 200 mg/kg/day, 200 mg/kg/day po, day 1, read-out: AUC0-t(last)
  AUC(0-t): 126 ± 17.5 µg·h/mL
[2]; [6]
  Cmax: 20.2 ± 2.42 µg/mL
  Tmax: 7.33 ± 1.63 h
[2]; both sexes, Sprague-Dawley (Crl:CD (SD)IGS BR), 200 mg/kg/day, 200 mg/kg/day po, day 14, read-out: AUC0-t(last)
  AUC(0-t): 287 ± 36.5 µg·h/mL
[2]; [7]
  Cmax: 42.6 ± 13.1 µg/mL
  Tmax: 10.7 ± 6.53 h
[2]; both sexes, Sprague-Dawley (Crl:CD (SD)IGS BR), 800 mg/kg/day, 800 mg/kg/day po, day 1, read-out: AUC0-t(last)
  AUC(0-t): 574 ± 256 µg·h/mL
[2]; [8]
  Cmax: 40.5 ± 13 µg/mL
  Tmax: 6.67 ± 2.07 h
[2]; both sexes, Sprague-Dawley (Crl:CD (SD)IGS BR), 800 mg/kg/day, 800 mg/kg/day po, day 14, read-out: AUC0-t(last)
  AUC(0-t): 543 ± 252 µg·h/mL
[2]; female, Sprague Dawley (Crl:CD (SD)IGS BR), 50 mg/kg, Day 1, female
  Cmax: 4.42 ± 2.41 µg/mL
[2]; female, Sprague Dawley (Crl:CD (SD)IGS BR), 50 mg/kg, Day 1, female, read-out: AUC0-t(last)
  AUC(0-t): 55.8 ± 28.1 µg·h/mL
[2]; female, Sprague Dawley (Crl:CD (SD)IGS BR), 50 mg/kg/day, Day 28, female
  Cmax: 10.7 µg/mL
[2]; female, Sprague Dawley (Crl:CD (SD)IGS BR), 200 mg/kg, Day 1, female
  Cmax: 10 ± 0.815 µg/mL
[2]; female, Sprague Dawley (Crl:CD (SD)IGS BR), 200 mg/kg, Day 1, female, read-out: AUC0-t(last)
  AUC(0-t): 134 ± 10.8 µg·h/mL
[2]; female, Sprague Dawley (Crl:CD (SD)IGS BR), 200 mg/kg/day, Day 28, female
  Cmax: 21.4 µg/mL
[2]; female, Sprague Dawley (Crl:CD (SD)IGS BR), 800 mg/kg, Day 1, female
  Cmax: 44.8 ± 20.1 µg/mL
[2]; female, Sprague Dawley (Crl:CD (SD)IGS BR), 800 mg/kg, Day 1, female, read-out: AUC0-t(last)
  AUC(0-t): 683 ± 241 µg·h/mL
[2]; female, Sprague Dawley (Crl:CD (SD)IGS BR), 800 mg/kg/day, Day 28, female (n=2)
  Cmax: 41.9 µg/mL
[2]; female, Sprague-Dawley (Crl:CD (SD)IGS BR), 50 mg/kg/day, Day 28, female, read-out: AUC0-t(last)
  AUC(0-t): 197 µg·h/mL
[2]; female, Sprague-Dawley (Crl:CD (SD)IGS BR), 200 mg/kg/day, Day 28, female, read-out: AUC0-t(last)
  AUC(0-t): 448 µg·h/mL
[2]; female, Sprague-Dawley (Crl:CD (SD)IGS BR), 800 mg/kg/day, Day 28, female (n=2), read-out: AUC0-t(last)
  AUC(0-t): 738 µg·h/mL
[2]; male, Sprague Dawley (Crl:CD (SD)IGS BR), 50 mg/kg, Day 1, male
  Cmax: 1.42 ± 0.393 µg/mL
[2]; male, Sprague Dawley (Crl:CD (SD)IGS BR), 50 mg/kg, Day 1, male, read-out: AUC0-t(last)
  AUC(0-t): 16.5 ± 9.76 µg·h/mL
[2]; male, Sprague Dawley (Crl:CD (SD)IGS BR), 50 mg/kg/day, Day 28, male
  Cmax: 7.75 µg/mL
[2]; male, Sprague Dawley (Crl:CD (SD)IGS BR), 200 mg/kg, Day 1, male
  Cmax: 8.55 ± 2.31 µg/mL
[2]; male, Sprague Dawley (Crl:CD (SD)IGS BR), 200 mg/kg, Day 1, male, read-out: AUC0-t(last)
  AUC(0-t): 119 ± 21.9 µg·h/mL
[2]; male, Sprague Dawley (Crl:CD (SD)IGS BR), 200 mg/kg/day, Day 28, male
  Cmax: 24.2 µg/mL
[2]; male, Sprague Dawley (Crl:CD (SD)IGS BR), 800 mg/kg, Day 1, male
  Cmax: 40.3 ± 1.56 µg/mL
[2]; male, Sprague Dawley (Crl:CD (SD)IGS BR), 800 mg/kg, Day 1, male, read-out: AUC0-t(last)
  AUC(0-t): 465 ± 264 µg·h/mL
[2]; male, Sprague Dawley (Crl:CD (SD)IGS BR), 800 mg/kg/day, Day 28, male
  Cmax: 33 µg/mL
[2]; male, Sprague-Dawley (Crl:CD (SD)IGS BR), 50 mg/kg/day, Day 28, male, read-out: AUC0-t(last)
  AUC(0-t): 113 µg·h/mL
[2]; male, Sprague-Dawley (Crl:CD (SD)IGS BR), 200 mg/kg/day, Day 28, male, read-out: AUC0-t(last)
  AUC(0-t): 387 µg·h/mL
[2]; male, Sprague-Dawley (Crl:CD (SD)IGS BR), 800 mg/kg/day, Day 28, male, read-out: AUC0-t(last)
  AUC(0-t): 509 µg·h/mL

From article PMC3006138, “Fexinidazole – A New Oral Nitroimidazole Drug Candidate Entering Clinical Development for the Treatment of Sleeping Sickness” (PLoS Neglected Tropical Diseases, 2010)
